Measured values published in ChEMBL document CHEMBL5346973 (J Med Chem, 2023).
Activity calls are given as the source filed them. The rule behind the calls is not given here. Where a SMILES comes first, the peptide text is derived from it.

Tests used:
Assay type in all cases: cell-based
[1] = target: Nicotinic acetylcholine receptor alpha9/alpha10 (Rattus norvegicus) (UniProt P43144+Q9JLB5); assay: Antagonist activity at rat alpha9alpha10 nACh receptor expressed in Xenopus oocyte assessed as inhibition of acetylcholine-induced response at -70 mV holding potential at 10 uM measured after 5 mins by voltage-clamp based electrophysiological assay
[2] = target: Nicotinic acetylcholine receptor alpha9/alpha10 (Rattus norvegicus, UniProt P43144+Q9JLB5); assay: Antagonist activity at rat alpha9alpha10 nACh receptor expressed in Xenopus oocyte assessed as inhibition of acetylcholine-induced response at -70 mV holding potential by voltage-clamp based electrophysiological assay
Chain of Nicotinic acetylcholine receptor alpha9/alpha10 (P43144 whole entry): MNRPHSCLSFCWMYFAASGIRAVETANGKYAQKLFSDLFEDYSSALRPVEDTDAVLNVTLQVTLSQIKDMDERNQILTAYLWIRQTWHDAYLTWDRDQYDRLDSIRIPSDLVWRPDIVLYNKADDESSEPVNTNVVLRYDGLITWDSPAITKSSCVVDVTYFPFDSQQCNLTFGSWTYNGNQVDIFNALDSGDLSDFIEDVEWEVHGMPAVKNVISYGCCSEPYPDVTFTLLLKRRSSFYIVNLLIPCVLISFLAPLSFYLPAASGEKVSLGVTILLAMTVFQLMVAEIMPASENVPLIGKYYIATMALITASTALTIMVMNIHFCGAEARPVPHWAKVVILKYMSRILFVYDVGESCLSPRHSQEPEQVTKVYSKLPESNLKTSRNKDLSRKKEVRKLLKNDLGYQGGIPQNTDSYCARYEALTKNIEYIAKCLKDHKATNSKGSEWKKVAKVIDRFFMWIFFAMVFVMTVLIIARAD
Chain of Nicotinic acetylcholine receptor alpha9/alpha10 (Q9JLB5 whole entry): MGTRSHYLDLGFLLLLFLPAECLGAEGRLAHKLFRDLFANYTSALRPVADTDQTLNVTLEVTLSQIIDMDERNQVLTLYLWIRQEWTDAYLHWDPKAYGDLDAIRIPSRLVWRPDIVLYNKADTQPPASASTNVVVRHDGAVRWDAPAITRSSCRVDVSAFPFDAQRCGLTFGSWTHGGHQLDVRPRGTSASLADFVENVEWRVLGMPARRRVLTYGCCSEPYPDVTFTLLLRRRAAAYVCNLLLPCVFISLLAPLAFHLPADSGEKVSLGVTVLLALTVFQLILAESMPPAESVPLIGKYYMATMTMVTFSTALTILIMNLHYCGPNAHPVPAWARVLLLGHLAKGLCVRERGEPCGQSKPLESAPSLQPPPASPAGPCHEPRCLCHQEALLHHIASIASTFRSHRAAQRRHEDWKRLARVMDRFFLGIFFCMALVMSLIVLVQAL

[3] = target: Neuronal acetylcholine receptor subunit alpha-7 (Rattus norvegicus, UniProt Q05941); assay: Antagonist activity at rat alpha7 nACh receptor expressed in Xenopus oocyte assessed as inhibition of acetylcholine-induced response at -70 mV holding potential by voltage-clamp based electrophysiological assay
Chain of Neuronal acetylcholine receptor subunit alpha-7 (Q05941 whole entry): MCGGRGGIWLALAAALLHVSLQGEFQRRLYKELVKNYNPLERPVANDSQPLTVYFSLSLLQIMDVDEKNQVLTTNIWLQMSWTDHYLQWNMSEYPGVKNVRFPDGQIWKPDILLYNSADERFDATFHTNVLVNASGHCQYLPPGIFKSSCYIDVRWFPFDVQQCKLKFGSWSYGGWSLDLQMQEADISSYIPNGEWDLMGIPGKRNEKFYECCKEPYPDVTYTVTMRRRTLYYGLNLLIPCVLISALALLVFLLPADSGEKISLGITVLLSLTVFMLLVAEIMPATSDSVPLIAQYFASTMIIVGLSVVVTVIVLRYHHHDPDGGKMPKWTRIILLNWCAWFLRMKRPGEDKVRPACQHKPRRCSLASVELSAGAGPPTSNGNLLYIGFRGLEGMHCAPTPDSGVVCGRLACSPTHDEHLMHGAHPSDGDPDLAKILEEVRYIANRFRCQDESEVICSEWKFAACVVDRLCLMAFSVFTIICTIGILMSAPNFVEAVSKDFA

SMILES	Activity [1]	IC50 [2]	IC50 [3]
CC[C@H](C)[C@@H]1NC(=O)[C@H](CCCNC(=N)N)NC(=O)[C@H](CCCNC(=N)N)NC(=O)[C@@H](NC(=O)[C@H](Cc2ccc(O)cc2)NC(=O)[C@H](CCCNC(=N)N)NC(=O)[C@H](CCCNC(=N)N)NC(=O)[C@H](CCCNC(=N)N)NC(=O)[C@H](CCCNC(=N)N)NC(=O)[C@H](CC(=O)O)NC(=O)[C@H](Cc2ccc(O)cc2)NC(=O)[C@@H]2CCCN2C(=O)[C@H](CO)NC(=O)[C@H](C)NC(=O)[C@@H]2CSSC[C@H](NC(=O)[C@@H](N)[C@@H](C)O)C(=O)N[C@@H](C)C(=O)N[C@@H](CO)C(=O)N[C@@H](CO)C(=O)N[C@@H](C)C(=O)N[C@@H](CCCNC(=N)N)C(=O)N[C@@H](Cc3ccc(O)cc3)C(=O)N2)CSSC[C@@H](C(=O)N[C@H](C(=O)O)C(C)C)NC(=O)[C@H](C)NC(=O)[C@H](CC(=O)O)NC(=O)[C@H]([C@@H](C)O)NC1=O (HELM PEPTIDE1{T.C.A.S.S.A.R.Y.C.A.S.P.Y.D.R.R.R.R.Y.C.R.R.I.T.D.A.C.V}$PEPTIDE1,PEPTIDE1,2:R3-9:R3|PEPTIDE1,PEPTIDE1,20:R3-27:R3$$$V2.0)	inactive	> 10000 nM	–
CC[C@H](C)[C@@H]1NC(=O)[C@H](CCCNC(=N)N)NC(=O)[C@H](CCCNC(=N)N)NC(=O)[C@@H](NC(=O)[C@H](Cc2ccc(O)cc2)NC(=O)[C@H](C)NC(=O)[C@H](C)NC(=O)[C@H](C)NC(=O)[C@H](C)NC(=O)[C@H](CC(=O)O)NC(=O)[C@H](Cc2ccc(O)cc2)NC(=O)[C@@H]2CCCN2C(=O)[C@H](CO)NC(=O)[C@H](CCCNC(=N)N)NC(=O)[C@@H]2CSSC[C@H](NC(=O)[C@@H](N)[C@@H](C)O)C(=O)N[C@@H](CCCNC(=N)N)C(=O)N[C@@H](CO)C(=O)N[C@@H](CCCNC(=N)N)C(=O)NCC(=O)N[C@@H](CCCNC(=N)N)C(=O)N[C@@H](Cc3ccc(O)cc3)C(=O)N2)CSSC[C@@H](C(=O)N[C@H](C(=O)O)C(C)C)NC(=O)[C@H](C)NC(=O)[C@H](CC(=O)O)NC(=O)[C@H]([C@@H](C)O)NC1=O (HELM PEPTIDE1{T.C.R.S.R.G.R.Y.C.R.S.P.Y.D.A.A.A.A.Y.C.R.R.I.T.D.A.C.V}$PEPTIDE1,PEPTIDE1,2:R3-9:R3|PEPTIDE1,PEPTIDE1,20:R3-27:R3$$$V2.0)	inactive	> 10000 nM	–
CC[C@H](C)[C@@H]1NC(=O)[C@H](C)NC(=O)[C@H](C)NC(=O)[C@@H](NC(=O)[C@H](Cc2ccc(O)cc2)NC(=O)[C@H](C)NC(=O)[C@H](C)NC(=O)[C@H](C)NC(=O)[C@H](C)NC(=O)[C@H](CC(=O)O)NC(=O)[C@H](Cc2ccc(O)cc2)NC(=O)[C@@H]2CCCN2C(=O)[C@H](CO)NC(=O)[C@H](C)NC(=O)[C@@H]2CSSC[C@H](NC(=O)[C@@H](N)[C@@H](C)O)C(=O)N[C@@H](C)C(=O)N[C@@H](CO)C(=O)N[C@@H](CO)C(=O)NCC(=O)N[C@@H](C)C(=O)N[C@@H](Cc3ccc(O)cc3)C(=O)N2)CSSC[C@@H](C(=O)N[C@H](C(=O)O)C(C)C)NC(=O)[C@H](C)NC(=O)[C@H](CC(=O)O)NC(=O)[C@H]([C@@H](C)O)NC1=O (HELM PEPTIDE1{T.C.A.S.S.G.A.Y.C.A.S.P.Y.D.A.A.A.A.Y.C.A.A.I.T.D.A.C.V}$PEPTIDE1,PEPTIDE1,2:R3-9:R3|PEPTIDE1,PEPTIDE1,20:R3-27:R3$$$V2.0)	inactive	> 10000 nM	–
CC[C@H](C)[C@@H]1NC(=O)[C@H](CCCNC(=N)N)NC(=O)[C@H](CCCNC(=N)N)NC(=O)[C@@H]2CSSC[C@H](NC(=O)[C@H](Cc3ccc(O)cc3)NC(=O)[C@H](CCCNC(=N)N)NC(=O)CNC(=O)[C@H](CO)NC(=O)[C@H](CO)NC(=O)[C@H](C)NC(=O)[C@@H](NC(=O)[C@@H](N)[C@@H](C)O)CSSC[C@@H](C(=O)N[C@H](C(=O)O)C(C)C)NC(=O)[C@H](C)NC(=O)[C@H](CC(=O)O)NC(=O)[C@H]([C@@H](C)O)NC1=O)C(=O)N[C@@H](CCCNC(=N)N)C(=O)N[C@@H](CO)C(=O)N1CCC[C@H]1C(=O)N[C@@H](Cc1ccc(O)cc1)C(=O)N[C@@H](CC(=O)O)C(=O)N[C@@H](CCCNC(=N)N)C(=O)N[C@@H](CCCNC(=N)N)C(=O)N[C@@H](CCCNC(=N)N)C(=O)N[C@@H](CCCNC(=N)N)C(=O)N[C@@H](Cc1ccc(O)cc1)C(=O)N2	–	37 nM	9050 nM
CC[C@H](C)[C@H]1NC(=O)[C@H](CCCNC(=N)N)NC(=O)[C@H](CCCNC(=N)N)NC(=O)[C@@H](NC(=O)[C@H](Cc2ccc(O)cc2)NC(=O)[C@H](CCCNC(=N)N)NC(=O)[C@H](CCCNC(=N)N)NC(=O)[C@H](CCCNC(=N)N)NC(=O)[C@H](CCCNC(=N)N)NC(=O)[C@H](CC(=O)O)NC(=O)[C@H](Cc2ccc(O)cc2)NC(=O)[C@@H]2CCCN2C(=O)[C@H](CO)NC(=O)[C@H](CCCNC(=N)N)NC(=O)[C@@H]2CSSC[C@H](NC(=O)[C@@H](N)[C@@H](C)O)C(=O)N[C@@H](C)C(=O)N[C@@H](CO)C(=O)N[C@@H](CO)C(=O)NCC(=O)N[C@@H](CCCNC(=N)N)C(=O)N[C@@H](Cc3ccc(O)cc3)C(=O)N2)CSSC[C@@H](C(=O)N[C@H](C(=O)O)C(C)C)NC(=O)[C@H](C)NC(=O)[C@H](CC(=O)O)NC(=O)[C@H]([C@@H](C)O)NC1=O	–	74 nM	1130 nM
